Experimental data published in PubChem BioAssay AID179 (DTP/NCI, 2004).
Calls of active or inactive are those of the source.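 How the source made its calls: active means compounds giving half or more protection of infected cells from virus-caused growth loss, again on retest; inactive means the rest.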

System: CEM cells HIV-1 protection, formazan growth assay
Test: NCI AIDS Antiviral Assay
Conditions: for IC50: measured here: growth of uninfected CEM cells
How it was run: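 Soluble formazan readout of cell growth; CEM cells ± HIV-1; 5 drug concs. ≥50% protection → retest; ≥50% again = moderately active; reproducible 100% = confirmed active.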

S=C(c1c[nH]c2ccccc12)N1CCN(c2ccccc2)CC1
EC50: > 200 µM
IC50: 158 µM

CC1(C)CNC[C@](C)(OCc2ccccc2)C(=O)[N-]C(C)(C)CNC[C@@](C)(OCc2ccccc2)C(=O)[N-]1.[Ni+2]
EC50: > 200 µM
IC50: 151 µM

CC(NC(=O)C(N)CCC(=O)O)C(=O)NCP(=O)(O)O (centres undefined)
EC50: > 200 µM
IC50: > 200 µM

O=C(/C=C/c1ccccc1)/C=N/N1C(=S)N(c2ccccc2)C(=Nc2ccccc2)C1=Nc1ccccc1
EC50: > 200 µM
IC50: > 200 µM

O=C(c1ccccc1)N1CCC(Nc2nccs2)O1 (centres undefined)
EC50: > 200 µM
IC50: > 200 µM

N#Cc1n[nH]c2nc(=S)sc(N)c12
EC50: > 1200 µM
IC50: 891 µM

C[C@H]1S[C@H](c2c(F)cccc2F)n2c1nc1ccccc12
EC50: > 200 µM
IC50: 33.9 µM

NCc1ccc(-c2ccc(-c3ccc(-c4ccc(CN)s4)s3)s2)s1
EC50: > 100 µM
IC50: 72.4 µM

COc1ccc(C2=Nc3c(nc(SC)[nH]c3=O)NC(c3ccccc3)C2)cc1 (centres undefined)
outcome: inactive

Cc1cc(S(=O)(=O)NC(=NCC(=O)NN)NN)c(S)cc1Cl
EC50: > 200 µM
IC50: 34.7 µM

N#CNC1=NC(C(=O)O)CC(=O)N1CCc1c[nH]c2ccccc12 (centres undefined)
EC50: > 200 µM
IC50: 50.1 µM

CCc1nnc2n1N=C(c1ccc(-c3ccccc3)cc1)CS2
EC50: > 200 µM
IC50: 11.5 µM

CN1CC2(CO)C(c3ccccn3)N(C)C(c3ccccn3)C(CO)(C1)C2O (centres undefined)
EC50: > 115 µM
IC50: > 115 µM

CCN(CC)c1ccc(N=Nc2ccc(N=Nc3c(S(=O)(=O)O)cc4ccc(N)cc4c3O)c(OCCO)c2)cc1
EC50: > 14.8 µM
IC50: > 14.8 µM

Cc1cc(=O)n2c(nc3cc(Cl)ccc32)s1
EC50: > 28.8 µM
IC50: > 28.8 µM

Cc1cc(Cc2cc(C)c(O)c(Br)c2)cc(Br)c1O
EC50: > 200 µM
IC50: 1.58 µM

COc1ccc(CC(=O)NC(C)Cc2ccc(OC)c(OC)c2)cc1OC (centres undefined)
outcome: inactive

COC(=O)[C@H](COC(C)(C)C)NC(=O)N[C@H](C)c1ccccc1
EC50: > 200 µM
IC50: > 200 µM

Brc1ccc(C2CC3(c4ccccc4)ON=C(c4ccccc4)N3c3ccccc3S2)cc1 (centres undefined)
EC50: > 200 µM
IC50: 174 µM

c1cnc2c(c1)Sc1ncccc1S2
EC50: > 115 µM
IC50: 51.3 µM

O=C(c1nc2ccc(Cl)cc2[nH]c1=O)C(O)c1ccc2c(c1)OCO2 (centres undefined)
EC50: > 501 µM
IC50: 24.5 µM

O=c1ssc2ncccc12
EC50: > 295 µM
IC50: > 100 µM

CC(/C=C/c1ccccc1)=N\N=C(C)\C=C\c1ccccc1
EC50: > 13.2 µM
IC50: > 13.2 µM

CC(C)N(C)C(=O)C12C3C4C1C1C2C3C41C#N (centres undefined)
outcome: inactive

CC1CN(C(=O)OCC23COC4(C)CCC(C)(OC2)N34)CC(C)O1 (centres undefined)
EC50: > 200 µM
IC50: > 200 µM

C=C1C(OC(=O)C(O)C(c2ccccc2)N(C)C)C[C@H](OC(C)=O)[C@]2(C)C1C(OC(C)=O)[C@@H]1CC(OC(C)=O)C(C)=C([C@@H](OC(C)=O)C2OC(C)=O)C1(C)C (some centres undefined)
outcome: inactive

COC(=O)C1(F)C(=O)NC(=O)NC1OC (centres undefined)
EC50: > 1120 µM
IC50: 17.4 µM

CCOC(=O)C1(C)C2=CC=C(O2)C(C)(C)C2=CC=C(O2)C(C)(C)C2=CC=C(O2)C(C)(C)C2=CC=C1O2
outcome: inactive

CN1CCC23c4ccccc4NC1C21CCN(C)C3Nc2ccccc21
EC50: > 724 µM
IC50: 617 µM

CCOC(=O)c1ccc(C(O)CC(=O)OC(C)(C)C)[nH]1 (centres undefined)
EC50: > 200 µM
IC50: 38 µM

O=C1N(CCO)C2=CCCCC23c2[nH]c4ccccc4c2CCN13 (centres undefined)
EC50: > 200 µM
IC50: > 100 µM

COC1CC2C=C(C)/C=C/C=C/C(=O)NC(c3ccccc3)C/C=C/CCC(O)CC(=O)C2=C1O (centres undefined)
EC50: > 20.9 µM
IC50: 0.562 µM
